# Assay results reported in patent US11447477B2, “Indoleamine-2,3-dioxygenase inhibitor, the preparative method and the use thereof” (HINOVA PHARMACEUTICALS INC., priority 2017, dated 2022).
# Target: human IDO1 protease (Homo sapiens (Human), UniProt P14902)
# Experiment: Inhibitory activity against human IDO1 protease (absorbance test method)
# Type: biochemical
# Conditions: IDO1 (His-tag) enzyme, absorbance at 320 nm
# Experimental: 1) Experimental Materials and Apparatus: • IDO1 (His-tag) enzyme (BPS Bioscience) • L-tryptophan (Sigma) • Methylene blue (Sigma) • Catalase originated from the liver of cattle (Sigma) • L-ascorbic acid (Sigma) • Glycerol (Sigma) • Potassium dihydrogen phosphate solution (Sigma) • Tween 20 (Sigma) • Automatic sampling platform Liquid handler (Bravo & Echo) • Microplate Reader SpectraMax M5e (Molecular Devices)
# 2) Test Method of Compounds: The Compounds are Determined by Absorbance Test Method:
# The tested compounds and the reference compounds are dissolved in DMSO to prepare a high concentration of storage solution. The stock solution of reference compound was diluted with DMSO to prepare a 100× solution. In the first column of the working plate, 8 μL above tested compounds and 8 μL 100× reference compound were respectively added as the highest concentration, and then the highest concentrations were subjected to three times dilution to obtain 11 concentrations and prepare 100× solution. 0.5 μL solution was transferred from the above plate to the detection plate. […]. For HPE and ZPE control wells, 0.5 μL 100% DMSO was added.
# 25 μL 2×IDO1 (His-tag) enzyme solution (containing L-ascorbic acid, methylene blue, and catalase) was added to each well. 25 μL reaction solution without IDO1 (His-tag) enzyme was added into HPE control well. The test plate was centrifugated at 1000 rpm for 1 minute to mix well. Then, the test plate was incubated at room temperature for 30 minutes. 25 μL above 2× substrate (L-tryptophan) solution was added to each well. The test plate was centrifugated at 1000 rpm for 1 minute to mix well. The detection plate was placed on ELISA (SpectraMax M5e), the temperature was set at 25° C., and the absorbance (OD value) was measured at 320 nm every 10 minutes till 60 minutes.
# Calculating the increase ratio of absorbance: the slope of the absorbance increase curve from 10 min to 60 min is derived from SpectralMax M5e. The inhibition coefficient of compound was calculated: the inhibition ratio of compound=(the absorbance increase ratio of ZPE control well−the absorbance increase ratio of compound well)/(the absorbance increase ratio of ZPE control well−the absorbance increase ratio of HPE control well)×100. Results was analyzed by Prism 5.0.
# Chain of human IDO1 protease (P14902 whole entry): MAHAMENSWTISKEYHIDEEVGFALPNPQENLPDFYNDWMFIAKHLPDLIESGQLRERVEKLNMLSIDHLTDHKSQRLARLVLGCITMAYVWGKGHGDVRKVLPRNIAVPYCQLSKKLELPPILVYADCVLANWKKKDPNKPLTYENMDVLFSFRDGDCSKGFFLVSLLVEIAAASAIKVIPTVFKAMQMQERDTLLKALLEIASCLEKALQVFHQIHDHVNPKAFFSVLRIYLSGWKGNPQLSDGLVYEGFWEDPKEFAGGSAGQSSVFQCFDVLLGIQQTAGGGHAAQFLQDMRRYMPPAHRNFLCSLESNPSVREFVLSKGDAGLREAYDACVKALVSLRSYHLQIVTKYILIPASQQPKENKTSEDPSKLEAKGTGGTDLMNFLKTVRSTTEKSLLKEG
row,IC50 [nM],Compound
1,182,"O/N=C(\Nc1ccc(F)c(Br)c1)c1nonc1NCC1CNC1 [Compound 2, 4-((Azetidin-3-ylmethyl)amino)-N-(3-bromo-4-fluorophenyl)-N′-hydroxyl-1,2,5-oxadiazole-3-formamidine]"
2,430,"CC(C)(C)OC(=O)N1CC(CNc2nonc2/C(=N/O)Nc2ccc(F)c(Br)c2)C1 [Compound 3, t-Butyl 3-(((4-(N-(3-bromo-4-fluorophenyl)-N′-hydroxylformamidinyl)-1,2,5-oxadiazole-3-yl)amino)methyl)azetidin-1-formate]"
3,276,CC(C)(C)OC(=O)N1CCC(CNc2nonc2/C(=N/O)Nc2ccc(F)c(Br)c2)C1 (centres unmarked) [Compound 5]
4,88,"O/N=C(\Nc1ccc(F)c(Br)c1)c1nonc1NCC1CCNC1 (centres unmarked) [Compound 6, N-(3-Bromo-4-fluorophenyl)-N′-hydroxyl-4-((azacyclopentan-3-ylmethyl)amino)-1,2,5-oxadiazole-3-formamidine]"
5,59,"NS(=O)(=O)N1CCC(CNc2nonc2/C(=N/O)Nc2ccc(F)c(Br)c2)C1 (centres unmarked) [Compound 7, N-(3-bromo-4-fluorophenyl)-N′-hydroxyl-4-(((1-sulfamoylpyrrolidin-3-yl)methyl)amino)-1,2,5-oxadiazole-3-formamidine]"
6,254,"NS(=O)(=O)N1CCCC(CNc2nonc2/C(=N/O)Nc2ccc(F)c(Br)c2)C1 (centres unmarked) [Compound 10, N-(3-bromo-4-fluorophenyl)-N′-hydroxyl-4-(((1-sulfamoylpiperidin-3-yl)methyl)amino)-1,2,5-oxadiazole-3-formamidine]"
7,206,"NS(=O)(=O)N1CCOC(CNc2nonc2/C(=N/O)Nc2ccc(F)c(Br)c2)C1 (centres unmarked) [Compound 11, N-(3-bromo-4-fluorophenyl)-N′-hydroxyl-4-(((4-sulfamoylmorpholin-2-yl)methyl)amino)-1,2,5-oxadiazole-3-formamidine]"
8,133,"NS(=O)(=O)N1CCC1CNc1nonc1/C(=N/O)Nc1ccc(F)c(Br)c1 (centres unmarked) [Compound 12, N-(3-Bromo-4-fluorophenyl)-N′-hydroxyl-4-(((1-sulfamoylazetidine-2-yl)methyl)amino)-1,2,5-oxadiazole-3-formamidine]"
9,214,"NS(=O)(=O)N1CCCC1CNc1nonc1/C(=N/O)Nc1ccc(F)c(Br)c1 (centres unmarked) [Compound 13, N-(3-Bromo-4-fluorophenyl)-N′-hydroxyl-4-(((1-sulfamoylazacyclopentan-2-yl)methyl)amino)-1,2,5-oxadiazole-3-formamidine]"
10,279,"NS(=O)(=O)N1CCCCC1CNc1nonc1/C(=N/O)Nc1ccc(F)c(Br)c1 (centres unmarked) [Compound 14, N-(3-bromo-4-fluorophenyl)-N′-hydroxyl-4-(((1-sulfamoylazacyclohexane-2-yl)methyl)amino)-1,2,5-oxadiazole-3-formamidine]"
11,151,"NS(=O)(=O)N1CCCC1CCNc1nonc1/C(=N/O)Nc1ccc(F)c(Br)c1 (centres unmarked) [Compound 16, N-(3-bromo-4-fluorophenyl)-N′-hydroxyl-4-((2-(1-sulfamoylazacyclopentan-2-yl)ethyl)amino)-1,2,5-oxadiazole-3-formamidine]"
12,114,"NS(=O)(=O)N1CCC(CNc2nonc2/C(=N/O)Nc2ccc(F)c(Br)c2)CC1 [Compound 18, N-(3-bromo-4-fluorophenyl)-N′-hydroxyl-4-(((1-sulfamoylazacyclohexane-4-yl)methyl)amino)-1,2,5-oxadiazole-3-formamidine]"
13,119,"NS(=O)(=O)N1CCC(CCNc2nonc2/C(=N/O)Nc2ccc(F)c(Br)c2)CC1 [Compound 19, N-(3-bromo-4-fluorophenyl)-N′-hydroxyl-4-((2-(1-sulfamoylazacyclohexane-4-yl)ethyl)amino)-1,2,5-oxadiazole-3-formamidine]"
14,79,"CS(=O)(=O)N1CCC(CNc2nonc2/C(=N/O)Nc2ccc(F)c(Br)c2)C1 (centres unmarked) [Compound 20, N-(3-bromo-4-fluorophenyl)-N′-hydroxyl-4-(((1-methylsulfonylazacyclopentan-3-yl)methyl)amino)-1,2,5-oxadiazole-3-formamidine]"
15,141,"O=S(=O)(C1CC1)N1CCC(CNc2nonc2/C(=N/O)Nc2ccc(F)c(Br)c2)C1 (centres unmarked) [Compound 21, N-(3-bromo-4-fluorophenyl)-N′-hydroxyl-4-(((1-cyclopropylsulfonylazacyclopentan-3-yl)methyl)amino)-1,2,5-oxadiazole-3-formamidine]"
16,183,"CN(C)S(=O)(=O)N1CCC(CNc2nonc2/C(=N/O)Nc2ccc(F)c(Br)c2)C1 (centres unmarked) [Compound 23, (Z)—N-(3-bromo-4-fluorophenyl)-4-(((1-(N,N-methylsulfonyl)pyrrolidinyl-3-yl)methyl)amino)-N′-hydroxyl-1,2,5-oxadiazol-3-carboxyoximide]"
17,628,"NS(=O)(=O)N1CCC(COc2nonc2/C(=N/O)Nc2ccc(F)c(Br)c2)C1 (centres unmarked) [Compound 27, (Z)—N-(3-Bromo-4-fluorophenyl)-N′-hydroxyl-4-((1-sulfamoylpyrrolidin-3-yl)methoxyl)-1,2,5-oxadiazol-3-formamidine]"
18,142,CN(C)S(=O)(=O)N1CC(CNc2nonc2C(=NO)Nc2ccc(F)c(Br)c2)C1 [Compound 81]
19,115,CS(=O)(=O)N1CC(CNc2nonc2C(=NO)Nc2ccc(F)c(Br)c2)C1 [Compound 85]
20,167,"O=S(=O)(C1CC1)N1CC(CNc2nonc2/C(=N/O)Nc2ccc(F)c(Br)c2)C1 [Compound 86, (Z)—N-(3-Bromo-4-fluorophenyl)-4-(((1-(cyclopropylsulfonyl)azido-3-yl)methyl)amino)-N′-hydroxyl-1,2,5-oxadiazol-3-carboxyoximide]"
21,183,CN(C)C(=O)C(=O)N1CC(CNc2nonc2C(=NO)Nc2ccc(F)c(Br)c2)C1 [Compound 89]
22,64,NS(=O)(=O)N1CC(O)(CNc2nonc2C(=NO)Nc2ccc(F)c(Br)c2)C1 [Compound 92]
23,101,NS(=O)(=O)N1CCC(O)(CNc2nonc2C(=NO)Nc2ccc(F)c(Br)c2)C1 (centres unmarked) [Compound 151]
